Data reported in EPA's ToxValDB 9.5 (doi:10.2903/j.efsa.2014.3764).

Columns and labels:
Anas platyrhynchos = settings: oral, feed
Apis mellifera = settings: acute, duration: 48 hours, mortality
Canidae = settings: oral, Dog Other, clinical chemistry
Colinus virginianus = settings: acute; oral; mortality
Cyprinus carpio = settings: acute; duration: 96 hours; mortality
Daphnia magna = settings: chronic/long-term; duration: 21 days; mortality
Oncorhynchus mykiss = settings: chronic/long-term; duration: 87 days; mortality
Tagia sp. = settings: acute; duration: 14 days; mortality
Aphidius rhopalosiphi = test: LR50; higher = less toxic; settings: acute; duration: 48 hours; mortality

`CCS(=O)(=O)c1nc2ccccn2c1S(=O)(=O)NC(=O)Nc1nc(OC)cc(OC)n1` [Sulfosulfuron] was tested, and the NOEL (Anas platyrhynchos; reproductive) was 33.7 mg/kg-day, the LD50 (Anas platyrhynchos; short-term, mortality) was > 1350 mg/kg-day and the LD50 (Apis mellifera; dermal) was > 25 µg/piece. The LD50 (Apis mellifera; oral, unspecified) was > 30 µg/piece, the NOAEL (Canidae; chronic, duration: 1 years) was 100 mg/kg-day and the NOAEL (Canidae; subchronic, duration: 90 days) was 100 mg/kg-day. For the same compound, the LD50 (Colinus virginianus) was > 2250 mg/kg-day, the LC50 (Cyprinus carpio) was > 91 µg/mL and the NOEC (Daphnia magna) was 102 mg/L. The NOEC (Oncorhynchus mykiss) was 100 mg/L, the LD50 (Rattus norvegicus; acute, oral, mortality) was > 5000 mg/kg-day and the NOAEL (Rattus norvegicus; chronic, duration: 2 years, histopathology: nonneoplastic) was 24.4 mg/kg-day. For the same compound, the NOAEL (Rattus norvegicus; reproduction developmental, duration: 22 months, oral, diet, body weight) was 312 mg/kg-day, the LC50 (Tagia sp.) was > 848 mg/kg and the LR50 (Aphidius rhopalosiphi) was > 29.7 g/ha.
